Measured values from US20180092357A1, “SYNERGISTIC PRESERVATIVE COMPOSITIONS” (ISP Investments LLC, priority 2015, published 2018).
“And” between values parts separate entries of the source, which are not always exact repeats. Equal entries are not always repeated.

Assays:
Format in all cases: cell-based
B. cepacia (ATCC 25416) = assay: MIC and synergy test (Kull method); settings: compound or premix acting alone
Procedure: (§1) The cumulative synergistic activity of propylene carbonate, organic compounds/preservative compounds are performed against selected microbial strains.
(§2) Tryptic Soy Broth (TSB) media was used for bacterial evaluations and Yeast Malt Broth (YMB) for fungal evaluations. The compounds were added to the media and serially diluted. After serially diluting the media, 100 μl of a suspension of the testing bacteria or fungi were added to a final concentration of approximately […]. The inoculated media was then incubated at 32° C. for 2-5 days for bacteria or at 28° C. for 3-7 days for fungi.
(§3) The lowest concentration of each compound or mixture or compounds to inhibit visible growth was taken as the minimum inhibitory concentration (MIC). The MIC was taken as end points of activity. End points for the mixture of compound A (Propylene Carbonate) and compound B (organic compounds/conventional preservative) were then compared with the end points for the pure active ingredient alone.
(§4) Synergism was determined by a commonly used and accepted method described by Kull A. C.; Eisman, P. C.; Sylwestrowicz, H. D. and Mayer, R. L. 1961. Applied Microbiology, 9:538-541 using the ratio determine by:
(§5) • QA is the concentration of compound A in PPM, acting alone, which produced an end point. • Qa is the concentration of compound A in PPM, in the mixture, which produced an end point. • QB is the concentration of compound B in PPM, acting alone, which produced an end point. • Qb is the concentration of compound B in PPM, in the mixture, which produced an end point
(§6) When the sum of Qa/QA+Qb/QB is greater than one, antagonism is indicated. When the sum is equal to one, additive is indicated.
(§7) The results comprise following parameters: 1. Test organism (bacteria or fungi), 2. The end-point activity in % measured by MIC for the compound A alone (QA), for compound A in the mixture (Qa), for compound B alone (QB), for compound B in the mixture (Qb), 3. The ratio of Propylene carbonate or combinations of propylene carbonate and an organic compound (compound A) to organic compound (compound B) in that particular combination and the synergy index (SI) based on the formula SI=Qa/QA+Qb/QB.

C. albicans (ATCC 10231) = assay: MIC and synergy test (Kull method)
Procedure: as §1, §2, §3, §4, §5, §6, §7

E. coli (ATCC 8739) = assay: MIC and synergy test (Kull method); settings: compound or premix acting alone
Procedure: as §1, §2, §3, §4, §5, §6, §7

[1] = system: A. brasilensis (ATCC 16404); assay: MIC and synergy test (Kull method); settings: compound or premix acting alone
Procedure: as §1, §2, §3, §4, §5, §6, §7

[2] = system: P. aeruginosa (ATCC 9027); assay: MIC and synergy test (Kull method); settings: compound or premix acting alone
Procedure: as §1, §2, §3, §4, §5, §6, §7

S. aureus (ATCC 6538) = assay: MIC and synergy test (Kull method); settings: compound or premix acting alone
Procedure: as §1, §2, §3, §4, §5, §6, §7

bacteria and fungi = assay: Antimicrobial and antifungal characteristics (MIC), general statement; settings: alone

Compound | MIC of the compound acting alone (QA, QB) (B. cepacia (ATCC 25416)) | MIC of the compound acting alone (QA, QB) (C. albicans (ATCC 10231)) [%] | MIC of the compound acting alone (QA, QB) (E. coli (ATCC 8739)) | MIC of the compound acting alone (QA, QB) [1] | MIC of the compound acting alone (QA, QB) [2] [%] | MIC of the compound acting alone (QA, QB) (S. aureus (ATCC 6538)) | antimicrobial and antifungal characteristics (MIC) (bacteria and fungi)
OCCc1ccccc1 [PhA, Phenethyl Alcohol] | 0.156% | 0.625 |  |  |  |  | 
CC1COC(=O)O1 (stereo not shown) [PC, Propylene Carbonate] | 3.12% and 1.56% | 6.25 | 3.12% and 1.56% and 6.25% | 1.56% and 3.12% and 0.78% | 3.12 | 12.5% and 3.12% and 6.25% | no significant antimicrobial and antifungal characteristics
CCCCCCCC(=O)NO [CHA, Capryl Hydroxamic Acid] |  |  | 0.031% | 0.031% |  | 0.125% | 
CCCCC(O)CO (stereo not shown) [HD, 1,2-hexanediol] | 0.625% |  | 1.25% | 1.25% | 1.25 | 2.5% | 
CC1CCC(C(C)C)C(O)C1 (racemic) [DLM, DL-Menthol] | 0.69% |  | 1.39% |  |  | 0.69% | 
CCCCCCCCCCC=O [UND, Undecanal] |  |  |  | 1.25% |  |  | 
CCCCCCC(O)CO (stereo not shown) [OD, 1,2 octanediol] |  |  |  | 0.312% | 0.625 | 0.625% | 
Alkyl Glucoside [AG6206] |  |  |  |  | 3.12 |  | 
CCCCCCOCC(O)CO (stereo not shown) [HG, Hexylglycerine] |  |  |  | 0.156% |  |  | 
CCCCCCCCC(O)CO (stereo not shown) [DD] | 0.0625% |  | 0.0625% and 0.0312% | 0.0156% and 0.008% | >2.5 | 0.0312% and 0.0156% | 
CCC(=O)O [PA, Propionic Acid] | 0.20% |  |  | 0.078% |  |  | 
Cc1cc(O)ccc1C(C)C [DBL, O-cymen-5-ol] |  |  | 0.0625% |  |  |  | 
